The target of this assay is T1, human mAChR M4 (Homo sapiens, UniProt P08173).
T1 construct: expressed in transfected cells; host or cells: CHO-K1 (ATCC), stably expressing hM4 and Gqi5
T1 sequence (P08173 1-479): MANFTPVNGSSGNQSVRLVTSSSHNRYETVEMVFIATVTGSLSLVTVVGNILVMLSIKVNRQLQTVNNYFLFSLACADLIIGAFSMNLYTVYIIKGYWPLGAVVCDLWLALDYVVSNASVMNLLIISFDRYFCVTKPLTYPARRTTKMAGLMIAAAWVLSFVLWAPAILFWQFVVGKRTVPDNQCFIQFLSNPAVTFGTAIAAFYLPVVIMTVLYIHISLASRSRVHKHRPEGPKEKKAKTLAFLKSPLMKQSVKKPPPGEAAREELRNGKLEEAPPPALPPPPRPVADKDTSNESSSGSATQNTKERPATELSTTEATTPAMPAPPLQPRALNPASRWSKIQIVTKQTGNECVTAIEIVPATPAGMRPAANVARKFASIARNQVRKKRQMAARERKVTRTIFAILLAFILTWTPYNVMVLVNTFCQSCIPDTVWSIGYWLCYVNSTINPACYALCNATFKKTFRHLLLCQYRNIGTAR
Briefly: mAChR M4 cell-based functional assay: calcium flux (Fluo-4, FDSS), positive allosteric modulator activity on the EC20 acetylcholine response, hM4-Gqi5 CHO-K1 cells. More on the design: Emax: dose or concentration left out as unconfirmed. The settings on record: for Emax at 30 µM: CHO-K1, human M4, % ACh maximum at 30 μM; for EC50: PAM activity on EC20 acetylcholine response, calcium flux. The method, then: Human M4 cDNA, along with the chimeric G protein Gqi5, were transfected into Chinese hamster ovary (CHO-K1) cells purchased from the American Type Culture Collection using commercially available Lipofectamine 2000 transfection reagent (Dalby, B. et al., Methods (2004) 33(2), 95-103). hM4-Gqi5 cells were grown in Ham's F-12 medium containing 10% heat-inactivated fetal bovine serum (FBS), 20 mM […], 50 μg/mL G418 sulfate (CAS #108321-42-2), and 500 μg/mL Hygromycin B. rM4-Gqi5 cells were grown in DMEM containing 10% heat-inactivated FBS, 20 mM HEPES, 400 μg/mL G418 sulfate, and 500 μg/mL Hygromycin B.
For high throughput measurement of agonist-evoked increases in intracellular calcium, CHO-K1 cells stably expressing muscarinic receptors were plated in growth medium lacking G418 sulfate and hygromycin at 15,000 cells/20 μL/well in Greiner 384-well black-walled, tissue culture (TC)-treated, clear-bottom plates (VWR). Cells were incubated overnight at 37° C. and 5% C02. The next day, cells were washed using an ELX 405 (BioTek) with assay buffer; the final volume was then aspirated to 20 μL. Next, 20 μL of a 2.3 μM stock of Fluo-4/acetoxymethyl ester (Invitrogen, Carlsbad, CA), prepared as a 2.3 mM stock in DMSO and mixed in a 1:1 ratio with 10% (w/v) Pluronic F-127 and diluted in assay buffer, was added to the wells and the cell plates were incubated for 50 minutes at 37° C. and 5% C02. Dye was removed by washing with the ELX 405 and the final volume was aspirated to 20 μL. Compound master plates were formatted in an 11 point concentration-response curve (CRC) format (1:3 dilutions) in 100% DMSO with a starting concentration of 10 mM using a BRAVO liquid handler (Agilent). Test compound CRCs were then transferred to daughter plates (240 nL) using the Echo acoustic plate reformatter (Labcyte, Sunnyvale, CA) and then diluted into assay buffer (40 μL) to a 2× stock using a Thermo Fisher Combi (Thermo Fisher Scientific, Waltham, MA).
Calcium flux was measured using the Functional Drug Screening System (FDSS) 6000 or 7000 (Hamamatsu Corporation, Tokyo, Japan) as an increase in the fluorescent static ratio. Compounds were applied to cells (20 μL, 2×) using the automated system of the FDSS at 2-4 seconds into the protocol and the data were collected at 1 Hz. At 144 seconds, 10 μL of an EC20 concentration of the muscarinic receptor agonist acetylcholine was added (5×), followed by the addition of 12 μL of an EC80 concentration of acetylcholine at the 230 second time point (5×). Agonist activity was analyzed as a concentration-dependent increase in calcium mobilization upon compound addition. Positive allosteric modulator activity was analyzed as a concentration-dependent increase in the EC20 acetylcholine response. With the acetylcholine EC20 set as baseline, the test compound EC50 is determined as the concentration that produces an increase above baseline of 50% of the maximum increase in acetylcholine response elicted by the test compound. Antagonist activity was analyzed as a concentration-dependent decrease in the ECso acetylcholine response. Concentration-response curves were generated using a four-parameter logistical equation in XLFit curve fitting software (IDBS, Bridgewater, NJ) for Excel (Microsoft, Redmond, WA) or Prism (GraphPad Software, Inc., San Diego, CA).
Compounds were synthesized as described above. Activity (EC50 and Emax) was determined in the mAChR M4 cell-based functional assay as described above and the data are shown in Table 4. The compound numbers correspond to the compound numbers used in Examples 1-33 and Tables 1, 2, and 3.
(In general: A change in cytosolic calcium serves as a functional read-out for many receptors and channels.)

The mark [1] stands for this setting: human M4, read-out: Human M4 EC50.

Like-named read-outs stand apart in the source and are kept apart here.

Usually Emax stands for the greatest response seen or fitted, relative to the assay's reference. The EC50 is the concentration that produces a half-maximal response.

Turning to `Cc1ccc2nc(Cl)nc(N3CCc4ncc(-c5cnn(C6CC6)c5)cc4C3)c2c1` [Compound 30, 2-chloro-4-[3-(1-cyclopropylpyrazol-4-yl)-7,8-dihydro-5H-1,6-naphthyridin-6-yl]-6-methyl-quinazoline], the maximal response (Emax) at 30 µM was 113%. Further, the EC50 under setting [1] stood at 510 nM.

As to `CC(C)(O)CNc1nc(N2CCc3ncc(C(F)(F)F)cc3C2)c2cc(F)ccc2n1` [Compound 203, 1-[[6-fluoro-4-[3-(trifluoromethyl)-7,8-dihydro-5H-1,6-naphthyridin-6-yl]quinazolin-2-yl]amino]-2-methyl-propan-2-ol], the maximum response (Emax) at 30 µM came to 90%. Besides, under setting [1], the EC50 is 410 nM.

Regarding `Cc1nc(N2CCc3ncc(-c4cc(F)c(F)cc4C)cc3C2)c2cc(F)ccc2n1` [Compound 307, 4-(3-(4,5-difluoro-2-methylphenyl)-7,8-dihydro-1,6-naphthyridin-6(5H)-yl)-6-fluoro-2-methylquinazoline], the maximal effect (Emax) at 30 µM turned out to be 54%. Moreover, the EC50 under setting [1] was determined as 3730 nM.

For the compound `COc1ccc2ncnc(N3CCc4ncc(N5CCC(C(F)(F)F)n6nccc65)cc4C3)c2c1` (stereo not shown) [Compound 90, 6-methoxy-4-[3-[7-(trifluoromethyl)-6,7-dihydro-5H-pyrazolo[1,5-a]pyrimidin-4-yl]-7,8-dihydro-5H-1,6-naphthyridin-6-yl]quinazoline], the maximal response (Emax) at 30 µM was determined as 76%. Moreover, the concentration for a half-maximal effect (EC50) under setting [1] came to 1360 nM.

In the case of `Cc1ccc2ncnc(N3CCc4ncc(N5CCC(C(F)(F)F)n6nccc65)cc4C3)c2c1` (stereo not shown) [Compound 91, 6-methyl-4-[3-[7-(trifluoromethyl)-6,7-dihydro-5H-pyrazolo[1,5-a]pyrimidin-4-yl]-7,8-dihydro-5H-1,6-naphthyridin-6-yl]quinazoline], the maximum response (Emax) at 30 µM is 116%. In addition, under setting [1], the EC50 was determined as 130 nM.

On to `Cc1ccc2nc(C)nc(N3CCc4ncc(-c5cnc(C)s5)cc4C3)c2c1` [Compound 55, 5-[6-(2,6-dimethylquinazolin-4-yl)-7,8-dihydro-5H-1,6-naphthyridin-3-yl]-2-methyl-thiazole], for which the Emax at 30 µM worked out at 92%. Under setting [1], the concentration giving a half-maximal response (EC50) worked out at 480 nM.

`CC1(C)CN(c2cnc3c(c2)CN(c2ncnc4cc(F)c(F)cc24)CC3)CCO1` [Compound 242, 4-(6-(6,7-difluoroquinazolin-4-yl)-5,6,7,8-tetrahydro-1,6-naphthyridin-3-yl)-2,2-dimethylmorpholine]: the maximal response (Emax) at 30 µM stood at 90%. The EC50 under setting [1] worked out at 30 nM.

For the compound `Cc1ccc2nc(C)nc(N3CCc4ncc(N5CCOc6ncccc65)cc4C3)c2c1` [Compound 99, 1-[6-(2,6-dimethylquinazolin-4-yl)-7,8-dihydro-5H-1,6-naphthyridin-3-yl]-2,3-dihydropyrido[2,3-b][1,4]oxazine], the maximal response (Emax) at 30 µM stood at 101%. For the same compound, under setting [1], the concentration for a half-maximal effect (EC50) came to 100 nM.

Turning to `Fc1ccc2nc(Cl)nc(N3CCc4ncc(Br)cc4C3)c2c1` [Compound 150, 4-(3-bromo-7,8-dihydro-5H-1,6-naphthyridin-6-yl)-2-chloro-6-fluoro-quinazoline], the Emax at 30 µM is 105%. For the same compound, under setting [1], the concentration giving a half-maximal response (EC50) was determined as 100 nM.

Take `Fc1ccc2ncnc(N3CCc4ncc(-c5cnn(C6CC6)c5)cc4C3)c2c1` [Compound 1, 4-[3-(1-cyclopropylpyrazol-4-yl)-7,8-dihydro-5H-1,6-naphthyridin-6-yl]-6-fluoro-quinazoline]: the Emax at 30 µM is 99%. For the same compound, the concentration for a half-maximal effect (EC50) under setting [1] came to 130 nM.

On to `Fc1ccc2ncnc(N3CCc4ncc(N5CCOc6ncccc65)cc4C3)c2c1` [Compound 76, 1-[6-(6-fluoroquinazolin-4-yl)-7,8-dihydro-5H-1,6-naphthyridin-3-yl]-2,3-dihydropyrido[2,3-b][1,4]oxazine], for which the maximal effect (Emax) at 30 µM came out at 98%. In addition, the half-maximal effective concentration (EC50) under setting [1] stood at 30 nM.

As to `[2H]c1nc(N2CCc3ncc(-c4cnc(C)s4)cc3C2)c2cc(C)ccc2n1` [Compound 174, 5-[6-(2-deuterio-6-methyl-quinazolin-4-yl)-7,8-dihydro-5H-1,6-naphthyridin-3-yl]-2-methyl-thiazole], the maximal response (Emax) at 30 µM was found to be 82%. For the same compound, the half-maximal effective concentration (EC50) under setting [1] came to 140 nM.

`Cc1ccc2nc(C)nc(N3CCc4ncc(-c5cnn(C6CC6)c5)cc4C3)c2c1` [Compound 33, 4-[3-(1-cyclopropylpyrazol-4-yl)-7,8-dihydro-5H-1,6-naphthyridin-6-yl]-2,6-dimethyl-quinazoline]: the Emax at 30 µM amounted to 92%. Also, the EC50 under setting [1] was determined as 380 nM.

Turning to `Fc1ccc2ncnc(N3CCc4ncc(N5CCCn6nc(C(F)(F)F)cc65)cc4C3)c2c1` [Compound 276, 6-fluoro-4-(3-(2-(trifluoromethyl)-6,7-dihydropyrazolo[1,5-a]pyrimidin-4(5H)-yl)-7,8-dihydro-1,6-naphthyridin-6(5H)-yl)quinazoline], the maximal response (Emax) at 30 µM worked out at 96%. Further, under setting [1], the EC50 is 320 nM.

`Cc1nc(N2CCc3ncc(-c4ccc(C(F)(F)F)nc4)cc3C2)c2cc(Cl)ccc2n1` [Compound 4, 6-chloro-2-methyl-4-[3-[6-(trifluoromethyl)-3-pyridyl]-7,8-dihydro-5H-1,6-naphthyridin-6-yl]quinazoline]: the Emax at 30 µM amounted to 57%. The EC50 under setting [1] was found to be 860 nM.

Turning to `Cc1ccc2nc(Nc3ccnn3C)nc(N3CCc4ncc(Nc5ccnn5C)cc4C3)c2c1` [Compound 189, 6-methyl-N-(2-methylpyrazol-3-yl)-4-[3-[(2-methylpyrazol-3-yl)amino]-7,8-dihydro-5H-1,6-naphthyridin-6-yl]quinazolin-2-amine], the Emax at 30 µM was determined as 127%. Moreover, the EC50 under setting [1] was found to be 180 nM.

Take `Fc1ccc2ncnc(N3CCc4ncc(-n5cccn5)cc4C3)c2c1` [Compound 68, 6-fluoro-4-(3-pyrazol-1-yl-7,8-dihydro-5H-1,6-naphthyridin-6-yl)quinazoline]: the Emax (CHO-K1) worked out at 88%. Moreover, the EC50 (Human M4 EC50, human M4) is 220 nM.

With `Cc1ccc2ncnc(N3CCc4ncc(-c5cn(C)nc5C)cc4C3)c2c1` [Compound 14, 4-[3-(1,3-dimethylpyrazol-4-yl)-7,8-dihydro-5H-1,6-naphthyridin-6-yl]-6-methyl-quinazoline], the Emax at 30 µM stood at 117%. Besides, the EC50 under setting [1] was 160 nM.

On to `Cc1ccc2ncnc(N3CCc4ncc(-c5ccccc5C)cc4C3)c2c1` [Compound 298, 6-methyl-4-(3-(o-tolyl)-7,8-dihydro-1,6-naphthyridin-6(5H)-yl)quinazoline], for which the maximal effect (Emax) at 30 µM amounted to 100%. In addition, the half-maximal effective concentration (EC50) under setting [1] was 1300 nM.

Turning to `COc1ccc2ncnc(N3CCc4ncc(N5CCCn6nccc65)cc4C3)c2c1` [Compound 77, 4-[3-(6,7-dihydro-5H-pyrazolo[1,5-a]pyrimidin-4-yl)-7,8-dihydro-5H-1,6-naphthyridin-6-yl]-6-methoxy-quinazoline], the maximum response (Emax) at 30 µM was 127%. The EC50 under setting [1] is 70 nM.

The values above are taken from patent US20250026752A1, “POSITIVE ALLOSTERIC MODULATORS OF THE MUSCARINIC ACETYLCHOLINE RECEPTOR M4” (Vanderbilt University, priority 2021, published 2025).
